Data reported in patent publication US4499091A, “1-Amino (or substituted amino)-1,4-dihydro-4-oxo-6-fluoro-7-heterylquinoline-3-carboxylic acids and their use as antibacterial agents” (Sterling Drug Inc., priority 1983, dated 1985).
≈ marks a conversion by molar mass, not a printed value. Read-outs that look alike come from different tables or passages of the source.

Tests used:
Escherichia coli Vogel [1] = assay: in vivo antibacterial activity in mice infected with E. coli (PD50); parameters: species or system mouse (female) infected with Escherichia coli; conditions: sc, 168 h, read-out: Protective Dose (PD50)
Description: (§1) The in vivo antibacterial activity of the compounds of the invention was determined in female mice, 18-20 grams each, by the following procedure:
(§2) Aqueous solutions of the compounds to be tested were prepared by dissolving the free acid form in dilute sodium hydroxide and diluting the solution with distilled water to be desired volume.
(§3) Cultures of Escherichia coli Vogel prepared in brain heart infusion broth, cultures of Klebsiella pneumoniae 39645 grown in tryptose phosphate broth with 5% rabbit serum diluted in the same broth and cultures of Pseudomonas aeruginosa MGH-2 grown on brain heart infusion agar and suspended in physiological saline, were used to infect the mice as follows:
Mice infected with E. coli were medicated once (0.5 ml) one-half hour post infection, the test compound being administered by either the subcutaneous (s.c.) or oral (p.o.) route. Deaths were recorded daily for seven days.
(§4) Groups of ten animals each for four or five dose levels were thus treated and the number of survivors in each group recorded. The fifty percent protective dose values (PD50) were then calculated.

[2] = tested on: Klebsiella pneumoniae 39645; assay: in vivo antibacterial activity in mice infected with K. pneumoniae (PD50); parameters: species or system mouse (female) infected with Klebsiella pneumoniae; conditions: Klebsiella pneumoniae, 39645, sc, 336 h, read-out: Protective Dose (PD50)
Description: as §1, §2, §3
K. pneumoniae: mice were inoculated intramuscularly in the right hind leg with 0.2 ml of the bacterial test inoculum (2.05×10^4 cells/ml).
Mice infected with K. pneumoniae were medicated at the following times: seventeen hours and one hour preinfection, six hours postinfection and twice a day for the next three days. The test compound was administered by both subcutaneous (0.2 ml) and oral (0.5 ml) routes. Deaths were recorded daily for fourteen days.
as §4

[3] = tested on: Klebsiella pneumoniae 39645; assay: in vitro antibacterial activity, serial dilution (MIC); type: cell-based; conditions: 18-20 hours static incubation, read-out: Minimal Inhibitory Concentration (MIC)
Description: (§5) The in vitro antibacterial activity of the compounds of the invention was determined by conventional serial dilution procedures. Bacterial cultures were grown in tryptose phosphate broth or brain heart infusion broth (containing heat-inactivated normal horse serum for tests with S. pyogenes) overnight at 37° C. and subsequently diluted in double strength broth to provide bacterial inocula of about 2×10^5 cells/ml. Aqueous solutions of the compounds of the invention were prepared by dissolving the free acid form in 0.5N sodium hydroxide. The solutions were diluted with sterile distilled water to 1000 mcg/ml of compound in terms of the free acid. Serial two-fold dilutions of the compound stock solutions were prepared in water and 0.5 ml of each dilution was transferred to sets of tubes, one set for each bacterial inoculum.

[4] = tested on: Staphylococcus aureus Smith; assay: as above; type: cell-based; conditions: 18-20 hours static incubation, read-out: Minimal Inhibitory Concentration (MIC)
Description: as §5

Escherichia coli Vogel [5] = assay: as above; type: cell-based; conditions: 18-20 hours static incubation, read-out: Minimal Inhibitory Concentration (MIC)
Description: as §5

Proteus mirabilis MGH-1 = assay: as above; type: cell-based; conditions: MGH1, 18-20 hours static incubation, read-out: Minimal Inhibitory Concentration (MIC)
Description: as §5

[6] = tested on: Pseudomonas aeruginosa MGH-2; assay: as above; type: cell-based; conditions: MGH2, 18-20 hours static incubation, read-out: Minimal Inhibitory Concentration (MIC)
Description: as §5

Proteus vulgaris 9920 = assay: as above; type: cell-based; conditions: 18-20 hours static incubation, read-out: Minimal Inhibitory Concentration (MIC)
Description: as §5

[7] = tested on: Pseudomonas aeruginosa MGH-2; assay: in vivo antibacterial activity in mice infected with P. aeruginosa (PD50); parameters: species or system mouse (female) infected with Pseudomonas aeruginosa; conditions: MGH2, sc, 168 h, read-out: Protective Dose (PD50)
Description: as §1, §2, §3
Deaths were recorded daily for seven days.
as §4

[8] = tested on: Streptococcus pyogenes C203; assay: in vitro antibacterial activity, serial dilution (MIC); type: cell-based; conditions: 18-20 hours static incubation, read-out: Minimal Inhibitory Concentration (MIC)
Description: as §5

[9] = mouse, E. coli, s.c., once one-half hour post infection, 7 days
[10] = mouse, K. pneumoniae, s.c., pre- and postinfection, 14 days

Structure (SMILES) | ED50 (Escherichia coli Vogel [1]) [mg/kg] | ED50 [2] [mg/kg] | MIC [3] [µg/mL] | MIC [4] [µg/mL] | MIC (Escherichia coli Vogel [5]) [µg/mL] | MIC (Proteus mirabilis MGH-1) [µg/mL] | MIC [6] [µg/mL] | MIC (Proteus vulgaris 9920) [µg/mL] | ED50 [7] [mg/kg] | ED50 (Escherichia coli Vogel [1]; [9]) [mg/kg] | ED50 [2, 10] [mg/kg] | MIC [8] [µg/mL]
CNn1cc(C(=O)O)c(=O)c2cc(F)c(N3CCNCC3)cc21 [Example 4, 6-Fluoro-1,4-dihydro-1-methylamino-4-oxo-7-(1-piperazinyl)-3-quinolinecarboxylic acid] | 0.32 | 6.25 | 1 (≈ 3.12 µM) | 2 (≈ 6.24 µM) | 1 (≈ 3.12 µM) | 0.5 (≈ 1.56 µM) | 1 (≈ 3.12 µM) | 0.25 (≈ 0.78 µM) | 0.46 |  |  | 
CNn1cc(C(=O)O)c(=O)c2cc(F)c(N3CCCN(C)CC3)cc21 [Example 20, 6-Fluoro-7-(hexahydro-4-methyl-1H-1,4-diazapin-1-yl)-1,4-dihydro-1-methylamino-4-oxo-3-quinolinecarboxylic acid] |  |  | 4 (≈ 11.5 µM) | 4 (≈ 11.5 µM) | 2 (≈ 5.74 µM) | 2 (≈ 5.74 µM) | 4 (≈ 11.5 µM) |  |  | 3.6 | 33 | 32 (≈ 91.9 µM)
CCCNn1cc(C(=O)O)c(=O)c2cc(F)c(N3CCN(C)CC3)cc21 [Example 6, 6-Fluoro-1,4-dihydro-7-(4-methyl-1-piperazinyl)-4-oxo-1-propylamino-3-quinolinecarboxylic acid] |  |  | 2 (≈ 5.52 µM) | 15.6 (≈ 43 µM) | 2 (≈ 5.52 µM) | 31.3 (≈ 86.4 µM) | 31.3 (≈ 86.4 µM) | 2 (≈ 5.52 µM) |  | 32 | > 200 | 125 (≈ 345 µM)
CNn1cc(C(=O)O)c(=O)c2cc(F)c(N3CCC(O)C3)cc21 (stereo not shown) [Example 22, 6-Fluoro-1,4-dihydro-7-(3-hydroxy-1-pyrrolidinyl)-1-methylamino-4-oxo-3-quinolinecarboxylic acid] |  |  | 4 (≈ 12.4 µM) | 1 (≈ 3.11 µM) | 1 (≈ 3.11 µM) | 1 (≈ 3.11 µM) | 4 (≈ 12.4 µM) |  |  | 10.4 | 118 | 16 (≈ 49.8 µM)
CCNn1cc(C(=O)O)c(=O)c2cc(F)c(Cl)cc21 [7-Chloro-1-ethylamino-6-fluoro-1,4-dihydro-4-oxo-3-quinolinecarboxylic acid] |  |  | 3.9 (≈ 13.7 µM) | 15.6 (≈ 54.8 µM) | 1.95 (≈ 6.85 µM) | 3.9 (≈ 13.7 µM) | 31.3 (≈ 110 µM) | 0.25 (≈ 0.878 µM) |  |  |  | 31.3 (≈ 110 µM)
CNn1cc(C(=O)O)c(=O)c2cc(F)c(N3CCN(C(C)C)CC3)cc21 [Example 10, 6-Fluoro-1,4-dihydro-1-methylamino-7-[4-(1-methylethyl)-1-piperazinyl]-4-oxo-3-quinolinecarboxylic acid] |  |  | 0.5 (≈ 1.38 µM) | 2 (≈ 5.52 µM) | 0.5 (≈ 1.38 µM) | 4 (≈ 11 µM) | 8 (≈ 22.1 µM) |  |  | 2.7 | 50 | 4 (≈ 11 µM)
